The results in this text go back to patent US20040248953A1, “3-Arylsulfanyl and 3-heteroarylsulfanyl substituted benzo[b]thiophenes as therapeutic agents” (priority 2003, published 2004).

In the experiment the target is T1, PI3Kγ (Homo sapiens, UniProt P48736).
T1 construct: HA; made in house; host or cells: Spodoptera frugiperda (Sf9) cells, baculovirus coinfection
T1 sequence (P48736 whole entry, species assumed): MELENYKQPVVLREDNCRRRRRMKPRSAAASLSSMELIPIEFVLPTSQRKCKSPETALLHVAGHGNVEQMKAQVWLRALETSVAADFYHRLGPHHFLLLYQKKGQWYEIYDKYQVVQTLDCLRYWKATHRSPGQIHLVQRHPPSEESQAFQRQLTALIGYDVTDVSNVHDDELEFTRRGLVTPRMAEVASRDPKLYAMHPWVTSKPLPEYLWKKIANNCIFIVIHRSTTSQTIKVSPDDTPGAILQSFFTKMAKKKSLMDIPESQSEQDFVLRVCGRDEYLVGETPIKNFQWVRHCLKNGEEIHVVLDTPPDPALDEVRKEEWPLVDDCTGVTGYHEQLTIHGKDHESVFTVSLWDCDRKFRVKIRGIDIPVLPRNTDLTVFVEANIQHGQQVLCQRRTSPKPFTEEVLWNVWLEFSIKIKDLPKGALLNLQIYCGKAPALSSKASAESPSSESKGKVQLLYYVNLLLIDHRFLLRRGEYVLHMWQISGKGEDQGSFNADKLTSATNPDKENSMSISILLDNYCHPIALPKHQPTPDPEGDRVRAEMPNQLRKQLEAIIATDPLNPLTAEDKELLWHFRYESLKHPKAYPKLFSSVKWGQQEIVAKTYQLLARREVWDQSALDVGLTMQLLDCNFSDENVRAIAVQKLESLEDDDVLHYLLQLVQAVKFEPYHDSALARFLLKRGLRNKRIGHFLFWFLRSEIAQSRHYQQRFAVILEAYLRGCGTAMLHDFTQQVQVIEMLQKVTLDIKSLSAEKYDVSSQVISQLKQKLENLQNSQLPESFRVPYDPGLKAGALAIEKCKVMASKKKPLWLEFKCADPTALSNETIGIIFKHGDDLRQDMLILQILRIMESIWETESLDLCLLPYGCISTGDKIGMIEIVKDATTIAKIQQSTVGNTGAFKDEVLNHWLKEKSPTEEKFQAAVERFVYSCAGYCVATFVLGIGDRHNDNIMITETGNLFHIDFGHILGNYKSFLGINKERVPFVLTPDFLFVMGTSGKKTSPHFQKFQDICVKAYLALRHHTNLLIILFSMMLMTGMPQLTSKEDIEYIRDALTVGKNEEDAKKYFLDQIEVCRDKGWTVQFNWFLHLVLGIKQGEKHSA
T1 sequence (Q8WYR1 whole entry partner, species assumed): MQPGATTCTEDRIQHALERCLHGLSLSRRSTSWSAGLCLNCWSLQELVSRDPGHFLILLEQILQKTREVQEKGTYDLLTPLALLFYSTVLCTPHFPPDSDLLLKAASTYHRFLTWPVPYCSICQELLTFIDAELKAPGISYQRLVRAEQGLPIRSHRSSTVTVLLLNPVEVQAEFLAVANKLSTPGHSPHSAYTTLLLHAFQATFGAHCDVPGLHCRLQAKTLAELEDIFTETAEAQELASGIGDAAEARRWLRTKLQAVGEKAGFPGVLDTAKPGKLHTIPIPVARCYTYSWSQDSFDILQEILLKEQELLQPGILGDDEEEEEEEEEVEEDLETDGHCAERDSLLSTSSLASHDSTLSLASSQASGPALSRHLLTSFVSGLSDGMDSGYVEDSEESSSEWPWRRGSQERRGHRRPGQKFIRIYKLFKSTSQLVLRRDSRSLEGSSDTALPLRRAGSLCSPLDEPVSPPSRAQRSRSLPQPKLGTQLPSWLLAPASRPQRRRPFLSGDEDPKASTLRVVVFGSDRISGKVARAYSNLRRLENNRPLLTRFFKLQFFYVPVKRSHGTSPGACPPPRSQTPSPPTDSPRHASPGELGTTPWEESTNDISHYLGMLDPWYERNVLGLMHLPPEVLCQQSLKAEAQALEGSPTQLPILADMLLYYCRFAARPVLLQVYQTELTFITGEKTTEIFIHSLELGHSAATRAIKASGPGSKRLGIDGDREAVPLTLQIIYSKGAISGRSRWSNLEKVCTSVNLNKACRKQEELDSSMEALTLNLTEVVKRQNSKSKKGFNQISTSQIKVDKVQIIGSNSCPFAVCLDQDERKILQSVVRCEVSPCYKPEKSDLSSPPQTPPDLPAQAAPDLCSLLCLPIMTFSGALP
Nature of the experiment: PI3Kγ in vitro kinase assay (32P-ATP, PIP2 lipid micelles, filter plate). It is filed as biochemical. The settings on record: purified recombinant p101/p110γ protein with G protein β1/γ2 subunits; 20 μM ATP; 25 μM PIP2; 20 minutes at room temperature. The method, then:
Spodtera frugiperda cells, grown in ESF921 media, were coinfected with baculovirus expressing a glu-tagged p101 and baculovirus expressing an HA-tagged p110γ, at a 3:1 ratio of p101 baculovirus to p110γ baculovirus. Sf9 cells were grown to 1×10^7 total cells/mL in 10 L bioreactors and harvested 48-72 hours post infection. Samples of infected cells were then tested for expression of p101/p110γ PI3 kinase by immunoprecipitation and Western Blot analysis methods (see below). To purify PI3Kγ, 4 volumes of room temperature hypotonic lysis buffer (1 mM MgCl2, 1 mM DTT, 5 mM EGTA, 1 mM Pefabloc, 0.5 μM aprotinin, 5 μM leupeptin, 2 μM pepstatin, 5 μM E64, pH 8) per gram of cell paste, was poured onto frozen cell pellets with stirring, then lysed in a nitrogen “bomb” at 400 psi (599HC […], Parr Instrument Co, Moline, Ill.). NaCl was added to 150 mM, and sodium cholate was added to 1% and mixed for another 45 minutes. The lysates were clarified by centrifugation for 25 minutes at 14,000 rpm. The lysates were then loaded over anti-glu-linked Protein-G Sepaharose beads (Covance Research Products, Richmond, Calif.) using 20 mL resin/50 g cell paste. The column was washed with 15 volumes of wash buffer (1 mM DTT, 0.2 mM EGTA, 1 mM Pefabloc, 0.5 μM aprotinin, 5 μM leupeptin, 2 μM pepstatin, 5 μM E64, 150 mM NaCl, 1% sodium cholate, pH 8). PI3Kγ was eluted with 6 column volumes of wash buffer that contain 100 μg/mL of a peptide that competes for binding of the glu tag. The column fractions with the eluted protein (determined by taking OD280 readings) were collected and dialyzed in 0.2 mM EGTA, 1 mM DTT, 1 mM Pefabloc, 5 μM leupeptin, 0.5% sodium cholate, 150 mM NaCl, and 50% glycerol, pH 8. The fractions were stored at -80° C. until further use. Spodtera frugiperda cells were coinfected with baculovirus expressing a glu-tagged G protein β1 and baculovirus expressing a […], at a 1:1 ratio of glu-tagged G protein β1 baculovirus to G protein β2 baculovirus. Sf9 cells are grown in 10 L bioreactors and harvested 48-72 hours post infection. Samples of infected cells were tested for G protein β1/β2 expression by Western Blot analysis, as described below. Cell lysates were homogenized and loaded onto a column of glu-tagged beads as in Biological Example 1 and competed off the column with a glu peptide and processed as described in Biological Example 1. The inhibitory properties of the compounds in Table 1 were assayed in an in vitro PI3K assay. In a 96-well polypropylene plate, each well was spotted with […] of 50 times the desired final concentration of compound in DMSO. Purified recombinant p101/p110γ protein (0.03 μg; 2.7 nM) and G protein β1/γ2 subunits (0.09 μg; 57.7 nM) for each reaction was combined in the assay buffer (30 mM HEPES, 100 mM NaCl, 1 mM EGTA, and 1 mM DTT). ATP and [γ-^32P-ATP] (0.09 μCi) were added to this mixture so that the final ATP concentration in the reaction was 20 μM. Lipid micelles were formed by sonicating phosphatidylinositol4,5-diphosphate (PIP2), phosphatidylethanolamine (PE), and Na-cholate in the assay buffer for 10 minutes, adding MgCl2 and incubating on ice for 20 minutes, for final concentrations of 25 μM PIP2, 300 μM PE, 0.02% Na-cholate, and 10 mM MgCl2 in the reaction. The reactions were started by adding equal volumes lipid and enzyme mixture in a total volume of 50 μL, allowed to run for 20 minutes at room temperature, and stopped with 100 μL 75 mM H3PO4. The lipid product was transferred to a glass fiber filter plate and washed with 75 mM H3PO4 several times. The presence of radioactive lipid product (PIP3) was measured by adding Wallac Optiphase mix to each well and counting in a Wallac 1450 Trilux plate reader (PerkinElmer Life Sciences Inc., Boston, Mass. 02118). The IC50 for each compound tested is reported in μM in Table 1: […]
As to `COC(=O)CCc1ccc(Sc2c(C(=O)Nc3nnn[nH]3)sc3cc(C)c(OC)cc23)cc1` [Example 32, 3-{4-[5-Methoxy-6-methyl-2-(1H-tetrazol-5-ylcarbamoyl)-benzo[b]thiophen-3-ylsulfanyl]-phenyl}-propionic acid methyl ester], the IC50 (usually the midpoint of a concentration-inhibition curve) was found to be 4530 nM.
In the case of `COc1cc(Sc2c(C(=O)Nc3nnn[nH]3)sc3cc(OC)c(OC)cc23)ccc1O` [Example 14, 3-(4-hydroxy-3-methoxy-phenylsulfanyl)-5,6-dimethoxy-benzo[b]thiophene-2-carboxylic acid(1H-tetrazol-5-yl)-amide], the IC50 came out at 2310 nM.
On to `CCOc1ccc2sc(C(=O)Nc3nnn[nH]3)c(Sc3ccc(CC(=O)O)cc3)c2c1` [Example 63, {4-[5-Ethoxy-2-(1H-tetrazol-5-ylcarbamoyl)-benzo[b]thiophen-3-ylsulfanyl]-phenyl}-acetic acid], for which the half-maximal inhibitory concentration (IC50) worked out at 2710 nM.
Next, `COc1ccc(Sc2c(C(=O)Nc3nnn[nH]3)sc3cc(C)c(OC)cc23)cc1` [Example 37, 5-Methoxy-3-(4-methoxy-phenylsulfanyl)-6-methyl-benzo[b]thiophene-2-carboxylic acid(1H-tetrazol-5-yl)-amide]: 808 nM; `COc1cc2sc(C(=O)Nc3nnn[nH]3)c(SC(c3ccccc3)C(C)N(C)C(C)=O)c2cc1C` (stereo not shown) [Example 44, 3-[2-(Acetyl-methyl-amino)-1-phenyl-propylsulfanyl]-6-methoxy-5-methyl-benzo[b]thiophene-2-carboxylic acid(1H-tetrazol-5-yl)-amide]: 2780 nM.
As to `COc1cccc(Sc2c(C(=O)Nc3nnn[nH]3)sc3cc(OC)c(C)cc23)c1` [Example 46, 6-Methoxy-3-(3-methoxy-phenylsulfanyl)-5-methyl-benzo[b]thiophene-2-carboxylic acid(1H-tetrazol-5-yl)-amide], the IC50 came to 600 nM.
For the compound `COc1cc2sc(C(=O)Nc3nnn[nH]3)c(Sc3ccc(C)c(C)c3)c2cc1OC` [Example 11, 3-(3,4-dimethyl-phenylsulfanyl)-5,6-dimethoxy-benzo[b]thiophene-2-carboxylic acid(1H-tetrazol-5-yl)-amide], the IC50 stood at 2070 nM.
Regarding `COc1cc2sc(C(=O)Nc3nnn[nH]3)c(Sc3ccc(O)cc3)c2cc1C` [Example 38, 3-(4-Hydroxy-phenylsulfanyl)-6-methoxy-5-methyl-benzo[b]thiophene-2-carboxylic acid(1H-tetrazol-5-yl)-amide], the IC50 came out at 885 nM.
Take `COc1ccc2sc(C(=O)Nc3nnn[nH]3)c(Sc3ccccc3Cl)c2c1` [Example 19, 3-(2-chloro-phenylsulfanyl)-5-methoxy-benzo[b]thiophene-2-carboxylic acid(1H-tetrazol-5-yl)-amide]: the IC50 is 2220 nM.
As for `COc1cc2sc(C(=O)Nc3nnn[nH]3)c(Sc3ccoc3C)c2cc1OC` [Example 29, 5,6-dimethoxy-3-(2-methyl-furan-3-ylsulfanyl)-benzo[b]thiophene-2-carboxylic acid(1H-tetrazol-5-yl)-amide], the IC50 stood at 2160 nM.
With `COc1cccc(Sc2c(C(=O)Nc3nnn[nH]3)sc3cc(C)c(OC)cc23)c1` [Example 34, 5-Methoxy-3-(3-methoxy-phenylsulfanyl)-6-methyl-benzo[b]thiophene-2-carboxylic acid(1H-tetrazol-5-yl)-amide], the IC50 came out at 207 nM.
Next, `COc1cccc(Sc2c(C(=O)Nc3nnn[nH]3)sc3ccc(OC)cc23)c1` [Example 22, 5-methoxy-3-(3methoxyphenylsulfanyl)-benzo[b]thiophene-2-carboxylic acid(1H-tetrazol-5-yl)-amide]: 2930 nM; `COC(=O)Cc1ccc(Sc2c(C(=O)Nc3nnn[nH]3)sc3cc(OC)c(C)cc23)cc1` [Example 40, {4-[6-Methoxy-5-methyl-2-(1H-tetrazol-5-ylcarbamoyl)-benzo[b]thiophen-3-ylsulfanyl]-phenyl}-acetic acid methyl ester]: 1260 nM.
For the compound “3-(2,3-dichloro-phenylsulfanyl)-5-methoxy-benzo[b]thiophene-2-carboxylic acid(1H-tetrazol-5-yl)-amide [Example 25]”, the IC50 came out at 3450 nM.
Turning to `COc1cc2sc(C(=O)Nc3nnn[nH]3)c(Sc3ccc(C(=O)O)cc3)c2cc1C` [Example 58, 4-[6-Methoxy-5-methyl-2-(1H-tetrazol-5-ylcarbamoyl)-benzo[b]thiophen-3-ylsulfanyl]-benzoic acid], the IC50 was 1340 nM.
With `COc1ccc2sc(C(=O)Nc3nnn[nH]3)c(Sc3ccccc3)c2c1` [Example 17, 5-methoxy-3-phenylsulfanyl-benzo[b]thiophene-2-carboxylic acid(1H-tetrazol-5-yl)-amide], the IC50 came out at 2650 nM.
`COc1cc2c(Sc3ccc(CC(=O)O)cc3)c(C(=O)Nc3nnn[nH]3)sc2cc1C` [Example 56, {4-[5-Methoxy-6-methyl-2-(1H-tetrazol-5-ylcarbamoyl)-benzo[b]thiophen-3-ylsulfanyl]-phenyl}-acetic acid]: the IC50 was found to be 115 nM.
Turning to “3-[2-(Acetyl-methyl-amino)-1-phenyl-propylsulfanyl]-6-methoxy-5-methyl-benzo[b]thiophene-2-carboxylic acid(1H-tetrazol-5-yl)-amide [Example 43]”, the IC50 stood at 215 nM.
The same measure for `COc1cc2sc(C(=O)Nc3nnn[nH]3)c(Sc3cccc(O)c3)c2cc1OC` [Example 36, 3-(3-Hydroxy-phenylsulfanyl)-5,6-dimethoxy-benzo[b]thiophenes-2-carboxylic acid(1H-tetrazol-5-yl)-amide]: 1880 nM; for `COc1cc2sc(C(=O)Nc3nnn[nH]3)c(Sc3cccc(C(F)(F)F)c3)c2cc1C` [Example 42, 6-Methoxy-5-methyl-3-(3-trifluoromethyl-phenylsulfanyl)-benzo[b]thiophene-2-carboxylic acid(1H-tetrazol-5-yl)-amide]: 2170 nM; for `COc1cc2sc(C(=O)Nc3nnn[nH]3)c(Sc3ccccc3C)c2cc1OC` [Example 5, 5,6-dimethoxy-3-o-tolysulfanyl-benzo[b]thiophene-2-carboxylic acid(1H-tetrazol-5-yl)-amide]: 1270 nM.
Take “5-methoxy-3-(2-methyl-furan-3-ylsulfanyl)-benzo[b]thiophene-2-carboxylic acid(1H-tetrazol-5-yl)-amide [Example 16]”: the IC50 turned out to be 2210 nM.
Take `COC(=O)Cc1ccc(Sc2c(C(=O)Nc3nnn[nH]3)sc3cc(C)c(OC)cc23)cc1` [Example 31, {4-[5-Methoxy-6-methyl-2-(1H-tetrazol-5-ylcarbamoyl)-benzo[b]thiophen-3-ylsulfanyl]-phenyl}-acetic acid methyl ester]: the IC50 was found to be 3960 nM.
As for `COc1ccc2sc(C(=O)Nc3nnn[nH]3)c(Sc3cccc(Cl)c3)c2c1` [Example 21, 3-(3-chloro-phenylsulfanyl)-5-methoxy-benzo[b]thiophene-2-carboxylic acid(1H-tetrazol-5-yl)-amide], the IC50 is 4310 nM.
Take “3-(3-Chloro-phenylsulfanyl)-5-methoxy-6-methyl-benzo[b]thiophene-2-carboxylic acid(1H-tetrazol-5-yl)-amide [Example 33]”: the IC50 was found to be 170 nM.
